Experimental data published in patent publication US11040963B2 (priority 2017, dated 2021).

Experiments:
[1] = system: H1N1 A/New Caledonia/20/99; assay: microbe, parasite or virus in culture; assay type: cell-based, influenza A virus; conditions: Influenza A virus, H1N1, MDCK, 96 h, read-out: Virus neutralization assay (VNA), pEC50 H1N1 A/New Caledonia/20/99 (converted)
[2] = target: HA H5 A/Vietnam/1203/04 (Influenza A virus (A/Vietnam/1203/2004(H5N1)), UniProt Q5EP31); assay: biochemical; conditions: Competition binding (AlphaLISA), pIC50 H5 A/Vietnam/1203/04
in vitro = conditions: dog, Cytotoxicity (pCC50) MDCK
[3] = target: HA H1 A/New Caledonia/20/99 (Influenza A virus (A/New Caledonia/20/1999(H1N1)), UniProt Q6WG00); assay: biochemical; conditions: Competition binding (AlphaLISA), pIC50 H1 A/New Caledonia/20/99
H1N1 A/California/07/09 = assay: microbe, parasite or virus in culture; assay type: cell-based, influenza A virus; conditions: Influenza A virus, H1N1, MDCK, 96 h, read-out: Virus neutralization assay (VNA), pEC50 H1N1 A/California/07/09 (converted)
H5N1 A/Vietnam/1203/04 = assay: microbe, parasite or virus in culture; assay type: cell-based, influenza A virus; conditions: Influenza A virus, H5N1, MDCK, 96 h, read-out: Virus neutralization assay (VNA), pEC50 H5N1 A/Vietnam/1203/04, MDCK cells, 96 h, CPE by ATPlite (converted); average of repeats
[4] = target: HA H1 A/California/07/09 (Influenza A virus (A/California/07/2009(H1N1)), UniProt C3W5X2); assay: biochemical; conditions: Competition binding (AlphaLISA), pIC50 H1 A/California/07/09

Row | SMILES | EC50 [1] [nM] | IC50 [2] [nM] | CC50 (in vitro) [nM] | IC50 [3] [nM] | EC50 (H1N1 A/California/07/09) [nM] | EC50 (H5N1 A/Vietnam/1203/04) [nM] | IC50 [4] [nM]
1 | COC(=O)C(c1ccccc1)N1CCN(C(=O)c2cccc(-c3nc4cc(OC5CC5)ccc4o3)c2)CC1 (centres unmarked) [Example 1, Methyl 2-(4-(3-(5-cyclopropoxybenzo[d]oxazol-2-yl)benzoyl)piperazin-1-yl)-2-phenylacetate] | 2.51 | 63.1 | > 50100 | 0.631 | 2.51 | 200 | 1.26
2 | CC(=O)Nc1ccc2oc(-c3ccnc(C(=O)N4CCN([C@H](c5ccccc5)c5n[nH]c(C)n5)CC4)c3)nc2c1 [Example 2] | 2.51 | 158 | > 50100 | 5.01 | 10 | 1000 | 7.94
3 | COc1nnc([C@@H](c2ccccc2)N2CCN(C(=O)c3cc(-c4nc5cc(OC(F)(F)F)ccc5o4)ccn3)CC2)o1 [Example 4] | 79.4 | 100 | > 50100 | 7.94 | 100 | 1260 | 12.6
4 | CC(=O)Nc1ccc2oc(-c3ccnc(C(=O)N4CCN(C(c5ccccc5)c5n[nH]c(C)n5)CC4)c3)nc2c1 (centres unmarked) [Example 5] | 6.31 | 501 | > 50100 | 15.8 | 15.8 | 1260 | 25.1
5 | CC(=O)Nc1ccc2oc(-c3cccc(C(=O)N4CCN(C(c5ccccc5)c5n[nH]c(C)n5)CC4)c3)nc2c1 (centres unmarked) [Example 6] | 6.31 | 501 | > 50100 | 10 | 20 | 12600 | 20
6 | COC(=O)C(c1ccccc1)N1CCN(C(=O)c2cccc(-c3nc4cc(NC(C)=O)ccc4o3)c2)CC1 (centres unmarked) [Example 7] | 25.1 | 158 | 31600 | 3.16 | 25.1 | 1580 | 6.31
7 | COC(=O)[C@@H](c1ccccc1)N1CCN(C(=O)c2cccc(-c3nc4cc(OC)ccc4o3)c2)CC1 [Example 8] | 31.6 | 200 | > 50100 | 3.98 | 39.8 | 1260 | 6.31
8 | CNc1ccc2oc(-c3cccc(C(=O)N4CCN(C(C(=O)OC)c5ccccc5)CC4)c3)nc2c1 (centres unmarked) [Example 9] | 39.8 | 251 | 10000 | 3.98 | 63.1 | 1580 | 6.31
9 | COC(=O)C(c1ccccc1)N1CCN(C(=O)c2cccc(-c3nc4cc(N)ccc4o3)c2)CC1 (centres unmarked) [Example 10] | 50.1 | 794 | 25100 | 15.8 | 79.4 | 2510 | 25.1
10 | COC(=O)C(c1ccccc1)N1CCN(C(=O)c2cccc(-c3nc4cc(N(C)C)ccc4o3)c2)CC1 (centres unmarked) [Example 11] | 50.1 | 316 | 3980 | 6.31 | 79.4 | 1260 | 7.94
11 | Cc1nnc([C@@H](c2ccccc2)N2CCN(C(=O)c3cc(-c4nc5cc(OC(F)(F)F)ccc5o4)ccn3)CC2)o1 [Example 12] | 39.8 | 158 | 15800 | 7.94 | 39.8 | 1260 | 6.31
12 | COC(=O)C(c1ccccc1)N1CCN(C(=O)c2cccc(-c3nc4cc(OC)ccc4o3)c2)CC1 (centres unmarked) [Example 13] | 50.1 | 501 | 50100 | 6.31 | 79.4 | 3160 | 7.94
13 | COC(=O)C(c1ccccc1)N1CCN(C(=O)c2cc(-c3nc4ccc(OC)cc4s3)ccn2)CC1 (centres unmarked) [Example 14] | 63.1 | 126 | 15800 | 10 | 126 | 1000 | 20
14 | CC(=O)Nc1ccc2oc(-c3ccnc(C(=O)N4CCN([C@H](c5ccccc5)c5nnc(C)o5)CC4)c3)nc2c1 [Example 15] | 39.8 | 158 | > 50100 | 6.31 | 158 | 7940 | 3.16
15 | COC(=O)C(c1ccccc1)N1CCN(C(=O)c2cc(-c3nc4cc(C(F)(F)F)ccc4o3)ccn2)CC1 (centres unmarked) [Example 16] | 79.4 | 398 | – | 15.8 | 79.4 | 3160 | 15.8
16 | Cc1nnc([C@@H](c2ccccc2)N2CCN(C(=O)c3cc(-c4nc5cc(C(F)(F)F)ccc5o4)ccn3)CC2)o1 [Example 17] | 200 | 631 | 7940 | 31.6 | 126 | 3980 | 15.8
17 | Cc1coc(C(c2ccccc2)N2CCN(C(=O)c3cc(-c4nc5cc(OC(F)(F)F)ccc5o4)ccn3)CC2)n1 (centres unmarked) [Example 18] | 79.4 | 398 | > 50100 | 20 | 200 | 20000 | 39.8
18 | Cc1cnc(C(c2ccccc2)N2CCN(C(=O)c3cc(-c4nc5cc(OC(F)(F)F)ccc5o4)ccn3)CC2)o1 (centres unmarked) [Example 20] | 100 | 501 | 25100 | 20 | 79.4 | 7940 | 12.6
19 | Cc1nnc(C(c2ccccc2)N2CCN(C(=O)c3cc(-c4nc5ccccc5s4)ccc3F)CC2)o1 (centres unmarked) [Example 48] | 316 | 12600 | – | 200 | 631 | > 50100 | 251
20 | Cc1nnc(C(c2ccccc2)N2CCN(C(=O)c3cc(-c4nc5ccccc5o4)ccc3F)CC2)o1 (centres unmarked) [Example 52] | 398 | 20000 | – | 200 | 631 | > 50100 | 200
21 | Cc1nnc([C@@H](c2ccccc2)N2CCN(C(=O)[C@H]3CCCN(c4nc5cc(C(F)(F)F)ccc5o4)C3)CC2)o1 [Example 96] | 1000 | 15800 | – | 316 | 794 | 50100 | 200
22 | Cc1nnc(C(c2ccccc2)N2CCN(C(=O)c3ccnc(-c4nc5cc(C(F)(F)F)ccc5o4)c3)CC2)o1 (centres unmarked) [Example 101] | 1000 | 39800 | – | 794 | 2000 | > 50100 | 631
23 | Cc1nnc(C(c2ccccc2)N2CCN(C(=O)[C@H]3CCCN(c4nc5cc(C(F)(F)F)ccc5o4)C3)CC2)o1 (some centres unmarked) [Example 110] | 1260 | 50100 | – | 794 | 1260 | > 50100 | 398
